Measurements taken from the NIST ThermoML archive (doi:10.1016/j.tca.2015.02.014).

Experiment: mn = molality of the nth substance listed, in mol/kg
Conditions: 100 kPa, Liquid; for viscosity: Capillary tube (Ostwald / Ubbelohde) method; for speed of sound: Frequency=3 MHz, Sing-around technique in a fixed-path interferometer; for mass density: Vibrating tube method

C[C@H](CCC(=O)[O-])[C@H]1CC[C@H]2[C@@H]3CC[C@@H]4C[C@H](O)CC[C@]4(C)[C@H]3C[C@H](O)[C@]12C.[Na+] [sodium deoxycholate] + O
Conditions | mass density [kg/m3] | speed of sound [m/s] | viscosity [mPa·s]
293.15 K, m1 = 0.001 | 998.465 | 1483.4 | 1.003
293.15 K, m1 = 0.002 | 998.579 | 1483.8 | 1.004
293.15 K, m1 = 0.003 | 998.669 | 1484.2 | 1.006
293.15 K, m1 = 0.004 | 998.749 | 1484.5 | 1.009
293.15 K, m1 = 0.005 | 998.815 | 1484.6 | 1.014
293.15 K, m1 = 0.006 | 998.905 | 1485 | 1.027
293.15 K, m1 = 0.007 | 998.995 | 1485.2 | 1.036
293.15 K, m1 = 0.009 | 999.185 | 1485.5 | 1.045
293.15 K, m1 = 0.011 | 999.39 | 1485.8 | 1.049
293.15 K, m1 = 0.013 | 999.585 | 1486.2 | 1.053
293.15 K, m1 = 0.015 | 999.795 | 1486.5 | 1.062
293.15 K, m1 = 0.017 | 999.993 | 1486.8 | 1.069
298.15 K, m1 = 0.001 | 997.29 | 1497.2 | 0.8914
298.15 K, m1 = 0.002 | 997.395 | 1497.5 | 0.8926
298.15 K, m1 = 0.003 | 997.475 | 1497.8 | 0.8937
298.15 K, m1 = 0.004 | 997.555 | 1497.9 | 0.8967
298.15 K, m1 = 0.005 | 997.635 | 1498.1 | 0.9021
298.15 K, m1 = 0.006 | 997.715 | 1498.4 | 0.915
298.15 K, m1 = 0.007 | 997.805 | 1498.7 | 0.924
298.15 K, m1 = 0.009 | 997.996 | 1499.2 | 0.9323
298.15 K, m1 = 0.011 | 998.185 | 1499.5 | 0.9368
298.15 K, m1 = 0.013 | 998.388 | 1499.9 | 0.941
298.15 K, m1 = 0.015 | 998.572 | 1500.2 | 0.9489
298.15 K, m1 = 0.017 | 998.772 | 1500.6 | 0.956
303.15 K, m1 = 0.001 | 995.88 | 1509.6 | 0.7987
303.15 K, m1 = 0.002 | 995.983 | 1509.9 | 0.7999
303.15 K, m1 = 0.003 | 996.059 | 1510 | 0.801
303.15 K, m1 = 0.004 | 996.137 | 1510.2 | 0.8039
303.15 K, m1 = 0.005 | 996.215 | 1510.5 | 0.8092
303.15 K, m1 = 0.006 | 996.289 | 1510.7 | 0.822
303.15 K, m1 = 0.007 | 996.377 | 1511 | 0.8309
303.15 K, m1 = 0.009 | 996.557 | 1511.3 | 0.8391
303.15 K, m1 = 0.011 | 996.745 | 1511.8 | 0.8434
303.15 K, m1 = 0.013 | 996.921 | 1512 | 0.8476
303.15 K, m1 = 0.015 | 997.109 | 1512.3 | 0.8554
303.15 K, m1 = 0.017 | 997.29 | 1512.7 | 0.8624
308.15 K, m1 = 0.001 | 994.255 | 1520.1 | 0.7203
308.15 K, m1 = 0.002 | 994.355 | 1520.5 | 0.7215
308.15 K, m1 = 0.003 | 994.435 | 1520.7 | 0.7225
308.15 K, m1 = 0.004 | 994.509 | 1520.8 | 0.7254
308.15 K, m1 = 0.005 | 994.587 | 1521 | 0.7307
308.15 K, m1 = 0.006 | 994.659 | 1521.3 | 0.7433
308.15 K, m1 = 0.007 | 994.739 | 1521.5 | 0.752
308.15 K, m1 = 0.009 | 994.914 | 1521.9 | 0.7601
308.15 K, m1 = 0.011 | 995.094 | 1522.2 | 0.7644
308.15 K, m1 = 0.013 | 995.282 | 1522.6 | 0.7685
308.15 K, m1 = 0.015 | 995.452 | 1522.8 | 0.7762
308.15 K, m1 = 0.017 | 995.616 | 1523.2 | 0.7831
313.15 K, m1 = 0.001 | 992.421 | 1529.3 | 0.6543
313.15 K, m1 = 0.002 | 992.515 | 1529.5 | 0.6554
313.15 K, m1 = 0.003 | 992.6 | 1529.7 | 0.6565
313.15 K, m1 = 0.004 | 992.681 | 1529.8 | 0.6593
313.15 K, m1 = 0.005 | 992.757 | 1530 | 0.6645
313.15 K, m1 = 0.006 | 992.817 | 1530.3 | 0.677
313.15 K, m1 = 0.007 | 992.91 | 1530.5 | 0.6857
313.15 K, m1 = 0.009 | 993.064 | 1530.9 | 0.6936
313.15 K, m1 = 0.011 | 993.239 | 1531.2 | 0.6979
313.15 K, m1 = 0.013 | 993.428 | 1531.5 | 0.7019
313.15 K, m1 = 0.015 | 993.595 | 1531.8 | 0.7096
313.15 K, m1 = 0.017 | 993.737 | 1532 | 0.7164
318.15 K, m1 = 0.001 | 990.405 | 1536.9 | 0.5973
318.15 K, m1 = 0.002 | 990.499 | 1537.1 | 0.5984
318.15 K, m1 = 0.003 | 990.576 | 1537.3 | 0.5994
318.15 K, m1 = 0.004 | 990.651 | 1537.3 | 0.6022
318.15 K, m1 = 0.005 | 990.732 | 1537.5 | 0.6074
318.15 K, m1 = 0.006 | 990.802 | 1537.7 | 0.6197
318.15 K, m1 = 0.007 | 990.892 | 1537.9 | 0.6283
318.15 K, m1 = 0.009 | 991.03 | 1538.3 | 0.6361
318.15 K, m1 = 0.011 | 991.199 | 1538.6 | 0.6403
318.15 K, m1 = 0.013 | 991.379 | 1538.9 | 0.6443
318.15 K, m1 = 0.015 | 991.535 | 1539.2 | 0.6518
318.15 K, m1 = 0.017 | 991.705 | 1539.5 | 0.6586
